# Tests used:
# ApoE knockout mice = test: Regression of aortic lesions in ApoE knockout mice on atherogenic diet; assay type: in vivo; settings: for aortic lesions, area stained with Oil Red O, versus high fat diet controls (FIGS. 7A and 7B): liposomes intravenously once every four days for two weeks, 6 mg/kg, after four weeks atherogenic diet; for color of livers versus untreated mice: preliminary examination, ApoE knockout mice on atherogenic diet
# Text: In regression experiments, ApoE knockout mice were placed on an atherogenic diet as described in Example 11 for four weeks, following which they were divided into two groups. One group continued on the diet for an additional two weeks. The other group continued on the diet for the same period but also received once every four days liposomes containing a peptide corresponding to amino acids 1-20 of murine SAA2.1 (SEQ ID NO:1; Group B of FIG. 7A and Group hf+p1 of FIG. 7B) or liposomes containing a peptide corresponding to amino acids 74-103 of murine SAA2.1 (SEQ ID NO:4; Group D of FIG. 7A and Group hf+p4 of FIG. 7B). The control group received high fat diet alone with no liposomes (Group A of FIG. 7A and Group high fat of FIG. 7B). An additional group was placed on a normal mouse chow diet (Group C of FIG. 7A and Group low fat of FIG. 7B). A further additional Group receiving liposomes containing a peptide corresponding to amino acids 1-20 of murine SAA2.1 (SEQ ID NO:1) and liposomes containing a peptide corresponding to amino acids 74-103 of murine SAA2.1 (SEQ ID NO:4) is depicted in FIG. 7B and is referred to as hf+p1+p4. FIG. 7B is inclusive of data present in FIG. 7A as well as data from a subsequent experiment performed under the same conditions. After the two weeks, the mice were killed and their aortas were dissected and stained with Oil Red O. Data of FIG. 7A depict the area stained with Oil Red O indicative of the actual lipid positive area as a percentage of the total aortic area viewed. Data of FIG. 7B depict the area stained with Oil Red O as a percentage relative to the high fat diet group (100%).
# The efficacy of SAA2.1 peptides in regression of atherosclerosis was examined. The peptides tested included SEQ ID NO:1 and SEQ ID NO:4. The peptides were injected intravenously once every four (4) days during atherogenic induction for a period of 2 weeks (i.e. four doses at 6 mg/kg).
# To determine if these peptides cause regression of atherosclerosis, the animals were placed on an atherogenic diet (Paigen's Atherogenic Rodent Diet: Purina 5015 with cocoa butter, cholesterol and cholic acid (CI3002, Research Diets, Inc.)) for […], following which they were divided into two groups of 5 animals each. One group continued on the diet for an additional two weeks. […]
# To assess the effects of the peptides on aortic atherosclerosis, at the termination of the experiment, the aorta was removed from the animals and opened longitudinally. The endothelial surface was stained with Oil Red O and the area occupied by lipid was measured by image analysis. Furthermore, histological sections of aorta were prepared for microscopic analysis and total lipids were isolated to measure the quantity of cholesterol per wet weight of tissue. […]
# THP-1 cells = test: Cholesterol efflux from cholesterol-laden human THP-1 cells; assay type: cell-based; settings: liposomal formulations; cholesterol-laden THP-1 cells differentiated with phorbol myristate acetate
# Method: These monocytes were differentiated into macrophages with phorbol myristate acetate (100 nM). In these experiments, cholesterol-laden human THP-1 cells were exposed to liposomal formulations comprising a peptide corresponding to amino acids 1-20 of murine SAA2.1 (SEQ ID NO:1), a peptide corresponding to amino acids 74-103 of murine SAA2.1 (SEQ ID NO:4), a peptide corresponding to amino acids 1-20 of murine SAA1.1 plus an arginine at the N-terminus (SEQ ID NO:7), or a peptide corresponding to amino acids 1-20 of murine SAA2.1 (SEQ ID NO:1) and a peptide corresponding to amino acids 74-103 (SEQ ID NO:4) of murine SAA2.1. Results from these experiments are depicted in FIG. 4. […] Studies were carried out to determine whether murine SAA2.1 increases cholesterol export from a human derived monocytic cell line, THP-1 (obtained from American Type Culture Collection, Manassas, Va.; ATCC#TIB-202). Human monocytes were cultured in T-75 flasks with 30 ml RPMI 1640 medium containing 2 mM L-glutamine, 4.5 g/L glucose, 10 mM HEPES, 1.0 mM […] and supplemented with 0.05 mM 2-mercaptoethanol and 10% fetal bovine serum. Subsequently, five million cells were placed in each well of a 6-well tissue culture plate. The monocytes were differentiated into macrophages by treatment with phorbol myristate acetate (100 nM). THP-1 macrophages were enriched with cholesterol by incubating with red blood cells membrane fragments (175 μg as cholesterol) that had been previously labelled with 0.5 μCi/mL[^3H]-cholesterol at 37° C. for 6 hours in 0.2% bovine serum albumin, followed by an overnight equilibration period. Cells were washed four times with PBS/BSA prior to efflux studies. Cells were then incubated at 37° C. with 2 mL RPMI-BSA containing 5% LPDS and 50 μg/mL of either native HDL, SAA-HDL, liposomes containing 2 μmoles of apoA-I, SAA1.1 or 2.1, or liposomes containing 0.5 μmoles synthetic peptides corresponding to amino acid residues 1-20 (SEQ ID NO:1), 21-50 (SEQ ID NO:2), 51-80 (SEQ ID NO:3) or 74-103 (SEQ ID NO:4) of murine SAA2.1. The efflux media were collected at 0, 1, 2, 4, 8, 16 and 24 hours, centrifuged to remove cell debris, and then used to measure the exported counts. […] A portion of the cells was lysed in 0.1N NaOH to estimate both the remaining radioactivity and the cellular protein content. Cellular lipids were extracted from the remaining portion of the cells and analyzed by thin-layer chromatography as described by Mendez et al. (J. Clin. Invest. 1994 94:1698-1705) and Oram et al. (Arterioscler. Thromb. 1991 11:403-414). The radioactivity in appropriate spots was measured to determine total cellular cholesterol counts. Efflux of radioactive label to the medium was calculated as the percentage of total counts (cell+medium counts) in each well.
Sequence,"aortic lesions, area stained with Oil Red O, versus high fat diet controls (FIGS. 7A and 7B) (ApoE knockout mice)",color of livers versus untreated mice (ApoE knockout mice),"cholesterol efflux, time course (FIG. 4) (THP-1 cells)"
"DTIADQEANRHGRSGKDPNYYRPPGLPDKY [SEQ ID NO:4, synthetic peptide, residues 74-103 of murine SAA2.1]",showed regression of aortic lesions,more normal reddish color,demonstrated to increase cholesterol efflux
"GFFSFVHEAFQGAGDMWRAY [SEQ ID NO:1, synthetic peptide, residues 1-20 of murine SAA2.1]",showed regression of aortic lesions,more normal reddish color,demonstrated to increase cholesterol efflux

# — US8703698B2, “Compositions and methods for treating atherosclerosis” (The University of Chicago, priority 2003, dated 2014)
